Data: patent publication US8487103B2 (Roche Palo Alto LLC, priority 2009, dated 2013)
Structures can show the parent of a compound that is named as a salt.

Tests used:
[1] = target: T1, HCV polymerase (NS5B570n-Con1) (Hepatitis C virus genotype 1b, UniProt Q9WMX2); assay: HCV NS5B RNA Polymerase Activity; type: biochemical, HCV Con1 strain
T1 construct: contains a 21 amino acid deletion at the C-terminus relative to the full-length HCV polymerase; 6-histidine (N); made in house; host or cells: E. coli BL21(DE) pLysS, plasmid pET 17b
Protocol: The enzymatic activity of HCV polymerase (NS5B570n-Con1) was measured as the incorporation of radiolabeled nucleotide monophosphates into acid insoluble RNA products. Unincorporated radiolabeled substrate was removed by filtration and scintillant was added to the washed and dried filter plate containing radiolabeled RNA product. The amount of RNA product generated by NS5B570-Con1 at the end of the reaction was directly proportional to the amount of light emitted by the scintillant.
The N-terminal 6-histidine tagged HCV polymerase, derived from HCV Con1 strain, genotype 1b (NS5B570n-Con1) contains a 21 amino acid deletion at the C-terminus relative to the full-length HCV polymerase and was purified from E. coli strain BL21(DE) pLysS. The construct, containing the coding sequence of HCV NS5B Con1 (GenBank accession number AJ242654) was inserted into the plasmid construct pET 17b, downstream of a T7 promoter expression cassette and transformed into E. coli. A single colony was grown overnight as a starter culture and later used inoculate 10 L of LB media supplemented with 100 μg/mL ampicillin at 37° C. Protein expression was induced by the addition of 0.25 mM isopropyl-β-D-thiogalactopyranoside (IPTG) when optical density at […] of the culture was between 0.6 and 0.8 and cells were harvested after 16 to 18 h at 30° C. NS5B570n-Con1 was purified to homogeneity using a three-step protocol including subsequent column chromatography on Ni-NTA, SP-Sepharose HP and Superdex 75 resins.
Each 50 μL enzymatic reaction contained 20 nM RNA template derived from the complementary sequence of the Internal Ribosome Entry Site (cIRES), 20 nM NS5B570n-Con1 enzyme, 0.5 μCi of tritiated UTP (Perkin Elmer catalog no. TRK-412; specific activity: 30 to 60 Ci/mmol; stock solution concentration from 7.5×10^−5 M to 20.6×10^−6 M), 1 μM each ATP, CTP, and GTP, 40 mM Tris-HCl pH 8.0, 40 mM NaCl, 4 mM DTT (dithiothreitol), 4 mM MgCl2, and 5 μl of compound serial diluted in DMSO. Reaction mixtures were assembled in 96-well filter plates (cat #MADVN0B, Millipore Co.) and incubated for 2 h at 30° C. Reactions were stopped by addition of 10% final (v/v) trichloroacetic acid and incubated for 40 min at 4° C. Reactions were filtered, washed with 8 reaction volumes of 10% (v/v) trichloroacetic acetic acid, 4 reaction volumes of 70% (v/v) ethanol, air dried, and 25 μl of scintillant (Microscint 20, Perkin-Elmer) was added to each reaction well.
The amount of light emitted from the scintillant was converted to counts per minute (CPM) on a Topcount® plate reader (Perkin-Elmer, Energy Range: Low, Efficiency Mode Normal, Count Time: 1 min, Background Subtract: none, Cross talk reduction: Off).
Data was analyzed in Excel® (Microsoft) and ActivityBase® (Idbs®). The reaction in the absence of enzyme was used to determine the background signal, which was subtracted from the enzymatic reactions. Positive control reactions were performed in the absence of compound, from which the background corrected activity was set as 100% polymerase activity. All data was expressed as a percentage of the positive control. The compound concentration at which the enzyme-catalyzed rate of RNA synthesis was reduced by 50% (IC50) was calculated by fitting equation (i) to the data where“Y”
[formula] corresponds to the relative enzyme activity (in %), “% Min” is the residual relative activity at saturating compound concentration, “% Max” is the relative maximum enzymatic activity, “X” corresponds to the compound concentration, and “S” is the Hill coefficient (or slope).

[2] = test system: HCV replicon cells (2209-23), genotype 1b replicon; assay: HCV Replicon Assay (Renilla luciferase reporter); type: cell-based, HCV genotype 1b; settings: Hepatitis C virus, 72 h; cell line 2209-23, luciferase activity after three days

Compound	IC50 [1]	melting point	IC50 [2]
COc1c(C(C)(C)C)cc(-c2ccc[nH]c2=O)c2ncc(N3CC(CNS(C)(=O)=O)C3)cc12 [Compound I-19, N-{1-[6-tert-Butyl-5-methoxy-8-(2-oxo-1,2-dihydro-pyridin-3-yl)-quinolin-3-yl]-azetidin-3-ylmethyl}-methanesulfonamide]	3 nM	177 to 180 °C	
CC(C)(C)c1cc(-c2ccc[nH]c2=O)c2ncc(-c3ccc(NS(C)(=O)=O)cc3)nc2c1 [Compound I-6, N-{4-[7-tert-Butyl-5-(2-oxo-1,2-dihydro-pyridin-3-yl)-quinoxalin-2-yl]-phenyl}-methanesulfonamide]	1 nM	260 to 263 °C	
COc1c(C(C)(C)C)cc(-n2ccc(=O)[nH]c2=O)c2ncc(-c3ccc(NS(C)(=O)=O)cc3)cc12 [Compound I-21, N-{4-[6-tert-Butyl-8-(2,4-dioxo-3,4-dihydro-2H-pyrimidin-1-yl)-5-methoxy-quinolin-3-yl]-phenyl}-methanesulfonamide]	2.2 nM	277 to 281 °C	0.3 nM
CC(C)(C)c1cc(-c2cc(F)c[nH]c2=O)c2ncc(N3CCC(NS(C)(=O)=O)CC3)cc2c1 [Compound I-13, N-{1-[6-tert-Butyl-8-(5-fluoro-2-oxo-1,2-dihydro-pyridin-3-yl)-quinolin-3-yl]-piperidin-4-yl}-methanesulfonamide]	64 nM	186 to 188 °C	
COc1ccc(-c2cc(C(C)(C)C)cc3cc(N4CC[C@H](CNS(C)(=O)=O)C4)cnc23)c(=O)[nH]1 [Compound I-60, N-{(S)-1-[6-tert-Butyl-8-(6-methoxy-2-oxo-1,2-dihydro-pyridin-3-yl)-quinolin-3-yl]-pyrrolidin-3-ylmethyl}-methanesulfonamide]			81.8 nM
CC(C)(C)c1cc(-c2cc(F)c[nH]c2=O)c2ncc(N3CC[C@H](CNS(C)(=O)=O)C3)nc2c1 [Compound I-4, N-{(S)-1-[7-tert-Butyl-5-(5-fluoro-2-oxo-1,2-dihydro-pyridin-3-yl)-quinoxalin-2-yl]-pyrrolidin-3-ylmethyl}-methanesulfonamide]	191 nM	170 to 175 °C	
CC(C)(C)c1cc(-c2cc(F)c[nH]c2=O)c2ncc(-c3ccc(NS(C)(=O)=O)cc3)cc2c1 [Compound I-12]		208 to 210 °C	
COc1c(C(C)(C)C)cc(-c2ccc(CO)[nH]c2=O)c2ncc(-c3ccc(NS(C)(=O)=O)cc3)cc12 [Compound I-41, N-{4-[6-tert-Butyl-8-(6-hydroxymethyl-2-oxo-1,2-dihydro-pyridin-3-yl)-5-methoxy-quinolin-3-yl]-phenyl}-methanesulfonamide]	0.2 nM	293 to 295 °C	
COc1[nH]c(=O)c(-c2cc(C(C)(C)C)c(OC)c3cc(-c4ccc(NS(C)(=O)=O)cc4)cnc23)cc1F [Compound I-47, N-{4-[6-tert-Butyl-8-(5-fluoro-6-methoxy-2-oxo-1,2-dihydro-pyridin-3-yl)-5-methoxy-quinolin-3-yl]-phenyl}-methanesulfonamide]	12.8 nM		
COc1c(C(C)(C)C)cc(-c2ccc[nH]c2=O)c2ncc(-c3ccc(NS(C)(=O)=O)cc3)cc12 [Compound I-14, N-{4-[6-tert-Butyl-5-methoxy-8-(2-oxo-1,2-dihydro-pyridin-3-yl)-quinolin-3-yl]-phenyl}-methanesulfonamide]	1 nM		
COc1ccc(-c2cc(CC(F)(F)F)c(OC)c3cc(-c4ccc(NS(C)(=O)=O)cc4)cnc23)c(=O)[nH]1 [Compound I-54, N-{4-[5-Methoxy-8-(6-methoxy-2-oxo-1,2-dihydro-pyridin-3-yl)-6-(2,2,2-trifluoro-ethyl)-quinolin-3-yl]-phenyl}-methanesulfonamide]	2.2 nM		
COc1nc2c(-c3ccc[nH]c3=O)cc(C(C)(C)C)cc2cc1-c1ccc(NS(C)(=O)=O)cc1 [Compound I-1, N-{4-[6-tert-Butyl-2-methoxy-8-(2-oxo-1,2-dihydro-pyridin-3-yl)-quinolin-3-yl]-phenyl}-methanesulfonamide]	8 nM	274 to 276 °C	
CC(C)(C)c1cc(-c2cc(F)c[nH]c2=O)c2ncc(-c3ccc(NS(C)(=O)=O)cc3)nc2c1 [Compound I-2, N-{4-[7-tert-Butyl-5-(5-fluoro-2-oxo-1,2-dihydro-pyridin-3-yl)-quinoxalin-2-yl]-phenyl}-methanesulfonamide]	31 nM	> 300 °C	
COc1c(C(C)(C)C)cc(-c2ccc(C)[nH]c2=O)c2ncc(OCCCNS(C)(=O)=O)cc12 [Compound I-45, N-{3-[6-tert-Butyl-5-methoxy-8-(6-methyl-2-oxo-1,2-dihydro-pyridin-3-yl)-quinolin-3-yloxy]-propyl}-methanesulfonamide]	11.8 nM		
COc1c(C(C)(C)C)cc(Br)c2ncc(-c3ccc(NS(C)(=O)=O)cc3)cc12 [Compound I-20]	225 nM		
COc1c(C(C)(C)C)cc(N2CCC(=O)NC2=O)c2ncc(N3CC[C@H](CNS(C)(=O)=O)C3)cc12 [Compound I-31]	1.8 nM		
COc1c(C(C)(C)C)cc(-c2cc(Cl)c(C)[nH]c2=O)c2ncc(-c3ccc(NS(C)(=O)=O)cc3)cc12 [Compound I-42, N-{4-[6-tert-Butyl-8-(5-chloro-6-methyl-2-oxo-1,2-dihydro-pyridin-3-yl)-5-methoxy-quinolin-3-yl]-phenyl}-methanesulfonamide]	0.6 nM		
COc1c(C(F)(F)F)cc(-c2ccc(C)[nH]c2=O)c2ncc(-c3ccc(NS(C)(=O)=O)cc3)cc12 [Compound I-49, N-{4-[5-Methoxy-8-(6-methyl-2-oxo-1,2-dihydro-pyridin-3-yl)-6-trifluoromethyl-quinolin-3-yl]-phenyl}-methanesulfonamidehydrobromide]	0.7 nM		
COc1ccc(-c2cc(C(C)(C)C)cc3cc(-c4ccc(NS(C)(=O)=O)cc4)cnc23)c(=O)[nH]1 [Compound I-58]	6 nM		
COc1c(C(C)(C)C)cc(-c2ccncc2F)c2ncc(-c3ccc(NS(C)(=O)=O)cc3)cc12 [Compound I-26]	1 nM		
COc1ccc(-c2cc(C3(C(F)F)CC3)c(OC)c3cc(-c4ccc(NS(C)(=O)=O)cc4)cnc23)c(=O)[nH]1 [Compound I-38]	0.6 nM		
CC(C)(C)c1cc(-c2ccc[nH]c2=O)c2ncc(-c3ccc(NS(C)(=O)=O)cc3Cl)nc2c1 [Compound I-7]	3 nM	275 to 278 °C	
CC(C)(C)c1cc(-c2cc(F)c[nH]c2=O)c2ncc(N3CCC(NS(C)(=O)=O)CC3)nc2c1 [Compound I-5]	817 nM	224 to 226 °C	
Cc1ccc(-c2nc(C(C)(C)C)cc3cc(-c4ccc(NS(C)(=O)=O)cc4)ccc23)c(=O)[nH]1 [Compound I-48, N-{4-[3-tert-Butyl-1-(6-methyl-2-oxo-1,2-dihydro-pyridin-3-yl)-isoquinolin-6-yl]-phenyl}-methanesulfonamide]			27.4 nM
CC(C)(C)c1cc(-c2ccc[nH]c2=O)c2ncc(N3CCC(NS(C)(=O)=O)CC3)nc2c1		275 to 280 °C	
COc1c(C(F)(F)F)cc(N2CCC(=O)NC2=O)c2ncc(-c3ccc(NS(C)(=O)=O)cc3)cc12 [Compound I-29, N-{4-[8-(2,4-Dioxo-tetrahydro-pyrimidin-1-yl)-5-methoxy-6-trifluoromethyl-quinolin-3-yl]-phenyl}-methanesulfonamide]	1.8 nM		
